Results published in patent US10350334B2, “Catheter locking solution having antimicrobial and anticoagulation properties” (Becton, Dickinson and Company, priority 2009, dated 2019).
Where “and” joins values, the source holds several entries; their conditions need not be identical. Equal values may be shown once.

Legend:
[1] = Internal testing of anticoagulant equivalence to heparin; settings: per internal testing
[2] = system: Staphylococcus epidermidis; assay: Planktonic cell tests; assay type: cell-based; settings: heparin solution
Experimental: In the planktonic cell tests, bupivacine was tested against non-adhering coagulase negative S. epidermidis, which is the bacterial species most prominent in the pathogenesis of CR-BSI. The planktonic cell experiments were performed by the following procedures. First, bacterial suspensions were prepared. Particularly, using BD BBL™ Qualiswab™, S. epidermidis was plated on a Tryptic Soy Broth (TSB) Petri Dish and grown overnight at 37° C. Using a sterile loop, a colony of S. epidermidis was picked up from the TSB Petri Dish and placed into a sterile flask containing 25 mL of sterile TSB media. The flask was then placed in a 37° C. shaking incubator and was shaken at 150 RPM overnight. The next day, 15 mL of the prepared bacterial suspension was placed into an autoclaved centrifuge tube and centrifuged at 10,000 RPM for 10 minutes using a Sorval Centrifuge. The bacteria from the bacterial suspension were rinsed in 0.9% saline by discarding the liquid media (after centrifugation step) and by resuspending the microbial pellet in 20 mL of sterile 0.9% saline. The bacteria were centrifuged and rinsed twice more, for a total of three saline rinses. […]
Bulk concentrations of the bupivacaine and/or vancomyacin (as noted in FIG. 1) were prepared in separate beakers and were filter sterilized. […] Samples were also assessed at time 0, in which there was no exposure to antimicrobials. […]

sheep plasma = assay: Sheep's Plasma Clotting Assay (USP coagulation test); assay type: biochemical
Experimental: In order to understand what the working concentration range could be for the anesthetics tested, a Sheep's Plasma Clotting Assay was performed. This test is based on the United States Pharmacopeia (USP) standard test for coagulation and is often used to understand heparin potency. […] Sheep plasma was thawed in a water bath set to 37° C. To facilitate thawing, the plasma in the bottle was inverted every 15 minutes. The plasma was thawed after about 45-60 minutes. The thawed sheep plasma was filtered through glass wool or filtered into a clean glass beaker or flask, to remove particulate matter and to activate it. About 70-80 mL of filtered sheep plasma was collected. Next, a set of test tubes were prepared (VWR Disposable 13×100-mm) in a 6×12 rack. Ten test tubes were needed for each test solution including ten test tubes for the heparin standard. […] For each test solution, every (10) test tube received different volumes of 0.9% NaCl. […] Next, the local anesthetics were added, namely, tetracaine at 30 mg/mL, dibucaine at 30 mg/mL, and bupivacaine at 38 mg/mL. Each of the ten test tubes received different volumes of test solutions, starting with 280 μL and increasing in volume by 20 μL until reaching a volume of 460 μL at the tenth tube. The total volume of saline and test solutions in each of the tubes was 800 μL. A standard solution, namely, USP heparin sodium standard, was also prepared in the same way, with the starting concentration of heparin being 5.6 U/mL. Next, 1 mL of sheep plasma for heparin assay (Bio-Supplies, Inc, P-SPR-1500) was pipetted into each tube, and the rack was gently shaken to ensure mixing. Two hundred μL of a 1% CaCl2 solution was placed into each tube. The total volume for each tube is 2 mL. Each tube was capped with a VWR Plug-type cap, and contents of each tube were inverted six times to ensure that the entire inner wall of each tube was wet. Tubes were incubated for 1 hour at room temperature. After the 1 hour time period, the extent of clotting in each tube was determined by gently shaking each individual test tube (tapping the end gently is acceptable) and then tilting the tube to observe a clot both vertically and horizontally. The degree to which each tube developed a clot was recorded using the following criteria (per the USP Standard) for the visual inspection of the tubes: • 0% Clotting=No apparent clot formed. • 25% Clotting=Small observable clot with mostly liquid. Clot is very mobile. • 50% Clotting=Plasma is completely clotted but mobile. • 75% Clotting=Clot is not mobile but liquid is still present. • 100% Clotting=Clot is not mobile and no liquid is present.
Because of the testing protocol, starting concentrations of anesthetics were diluted from the original formulation. Calculations can be made to compare the efficacy of these anesthetics to the standard anticoagulant heparin by calculating the point at which both standard and test samples yield 50% clotting. Using this calculation, the anesthetic concentration can be referenced back to a measure of U/mL of heparin equivalence.

[3] = system: Staphylococcus epidermidis biofilm; assay: Catheter biofilm eradication (catheter segment test) on silicone tubing; assay type: cell-based; settings: 1 hour, silicone catheter segments
Experimental: (§1) To understand the antimicrobial effects of the local anesthetics used in the lock solution of the present invention in a clinical setting, a biofilm was grown on silicone catheter-like tubing and treated with various concentrations of local anesthetics. First, a sterile silicone catheter-like tube containing 10 mL TSB media was inoculated with a BD BBL™ Qualiswab™, and placed in an incubator at 37° C. overnight. The next day, a sterile flask containing 25 mL TSB (for bacterial species) or 25 mL SDB (for fungal species) was inoculated with the cultured cells. The morning of the experiment, a new flask containing 25 mL of media was inoculated with the new overnight suspension. These steps were taken to ensure that cells were in the log phase, which for S. epidermidis was ˜3-4 hours, and for C. albicans was around ˜18 hrs. […] Microbial concentrations were adjusted to 1×10^5 CFU/mL by dilution with appropriate media. Silicone catheter-like tubing was terminally sterilized by autoclaving the tube for 45 minutes at 121° C. The sterilized catheter-like tubing was inoculated with 1×10^5 CFU/mL for 2 hours under continuous flow. Continuous flow was created by using a peristaltic pump, in which bacterial suspension was flowed through the catheter segments into a waste reservoir. After the 2 hour time period, the same set up was used to pump TSB media through the tubing for an additional 24 hours to allow biofilm to form on the walls of the catheter lumen. After 24 hours, sterilized saline was pumped through the lumen for 30 minutes to rinse the catheters. Catheters were then cut into 1 inch segments using sterile techniques. Catheter segments were dropped into sterile tubes containing 4 mL of antimicrobials, and incubated in a 37° C. incubator shaker for 1 hour. Segments were removed from treatment tubes and placed into new tubes filled with 6 mL of sterile saline. Each segment was swabbed with a sterile swab and both the tube and the swab were sonicated (Ultrasonic cleaner VWR Model 250T) for 3 minutes. Tubes and swabs were then vortexed (Fisher Scientific Vortex Mixer #02-215-365) for 30 seconds each. One hundred microliters of suspension was plated onto TSB agar plates (SDB for fungal species). The remaining 5.9 mL of suspension was passed through 0.4 μm filters and filters were placed on TSB plates. This step was taken to ensure that all possible bacteria were being recovered. All TSB plates were then incubated at 37° C. in a static incubator for 24-48 hours, at which time colony forming units were counted.

S. epidermidis = assay: Minimum Biofilm Inhibitory Concentration (MBIC) test; assay type: cell-based, Staphylococcus epidermidis; settings: for MBIC: adhered cells, 24 hours incubation; for MBIC Assuming 2 mL lock volume: amount in 2 mL lock volume
Experimental: (§2) To further evaluate the efficacy of local anesthetics in antimicrobial lock solutions of the present invention, the minimum concentration at which these drugs can inhibit biofilm growth was tested. The local anesthetics identified in Table 4 were tested against three different species of bacteria identified in Table 3 to assess the antimicrobial efficacy against adhered microbes. It is known that adhered microbes, or biofilms, can be more resistant to antimicrobials than planktonic cells.
(§3) Experiments were conducted against adhered microbes as follows: first, a test tube containing 10 mL of sterile TSB was inocubated with BD BBL™ Qualiswab™, with the strain of interest. The tube was placed in an incubator at 37° C. overnight. The next day, a flask containing 25 mL of sterile TSB (or Sabouraud Dextrose Broth (SDB) for fungal species) was inoculated with 1 mL of bacterial suspension. The flask was placed in an incubator at 37° C. and shaken at 150 RPM. The next day a new flask containing 25 mL of TSB (or SDB) media was inoculated with 1 mL from the previous culture. The bacterial or fungal species were allowed to grow to log phase.
(§4) After the microbes entered the log phase, their concentration was checked to ensure that they had reached a minimum of 1×10^8 CFU/mL per a 0.5 MacFarland standard. Microbes were diluted to a concentration of 1×10^5 CFU/mL using a nephelometer and 200 μL of the microbial suspensions were plated on each of the wells of a 96 well plate. The plate was incubated in a standard incubator at 37° C. for 2 hours to allow for microbial cell adhesion. Next, dilutions of the desired concentrations of antimicrobials were prepared. In a separate, blank plate, 1:2 serial dilutions were prepared with the highest concentration of the antimicrobial to the left of the plate, decreasing in concentration towards the right of the plate. For example, 170 μL of the highest concentration of an antimicrobial was dispensed in column 1 (left of plate). Each of the rest of the columns received 170 μL of saline. Column 2 received 170 μL of antimicrobial, making for a 1:2 dilution (or 50% of original concentration). Contents of Column 2 were then transferred to 3, then from 3 to 4, and so forth. Each well was supplemented with 20% media (TSB for S. epidermidis and P. aeruginosa and SDB for C. albicans), thereby ensuring the viability of the cells over the test time period (24 hours). Positive control wells had 20% media in saline. The bacterial plate was removed from the incubator, and bacterial suspension discarded (adhered cells remain on plate). The antimicrobial formulations identified in Table 4 were then added to the bacterial plate and incubated in a standard incubator at 37° C. for 24 hours. After this time period, solutions in the plate were discarded and plates were rinsed with 200 μL of saline. The cells were then fixed with 200 μL of 95% ethanol for 30 minutes, and allowed to air dry for 10 minutes. Next, the cells were stained for 20 minutes with 250 μL of a filtered solution of 2% crystal violet dye. The plates were then rinsed three times with water, and the 2% crystal violet dye was solubilized with 300 μL of 95% ethanol. The plates were allowed to stand for 10 minutes to complete solubilization and then the plates were read on a spectrophotometer at 570 nm absorbance, wherein high absorbance readings of >0.600 indicated microbial growth. Columns in the plate that had no growth were recorded as the […] (MBIC). FIG. 2 illustrates the MBIC corresponding to the specific local anesthetics.

P. aeruginosa = assay: as above; assay type: cell-based, Pseudomonas aeruginosa; settings: for MBIC: adhered cells, 24 hours incubation; for MBIC Assuming 2 mL lock volume: amount in 2 mL lock volume
Experimental: as §2, §3, §4

C. albicans = assay: as above; assay type: cell-based, Candida albicans; settings: for MBIC: adhered cells, 24 hours incubation; for MBIC Assuming 2 mL lock volume: amount in 2 mL lock volume
Experimental: as §2, §3, §4

Candida albicans biofilm = assay: Catheter biofilm eradication (catheter segment test) on silicone tubing; assay type: cell-based; settings: 38 mg/mL, 1 hour, silicone catheter segments
Experimental: as §1

For `O=C([O-])CC(O)(CC(=O)[O-])C(=O)[O-].[Na+].[Na+].[Na+]` [sodium citrate], the “anticoagulant equivalence to heparin” value [1] was “about 20 units/mL of heparin”.

In the case of heparin, the “antimicrobial effect against planktonic Staphylococcus epidermidis” value [2] was “virtually no antimicrobial effect” and the “volume at 50% coagulation” value (sheep plasma; Rep 1) was 370 µL.

In the case of `CCCNC(C)C(=O)Nc1ccccc1C.Cl` (stereo not drawn) [Prilocaine, Prilocaine HCl], the “antimicrobial effect on established biofilm” value [3] was “minimal antimicrobial effect”.

For `CCCCOc1cc(C(=O)NCCN(CC)CC)c2ccccc2n1.Cl` [Dibucaine, Dibucaine HCl], the MBIC (S. epidermidis) was 0.59 mg/mL, the “MBIC Assuming 2 mL lock volume” value (S. epidermidis) was 1.18 mg and the MBIC (P. aeruginosa; HCl) was 4.794 mg/mL and 4.75 mg/mL. The “MBIC Assuming 2 mL lock volume” value (P. aeruginosa) was 9.5 mg, the MBIC (C. albicans) was 0.59 mg/mL and the “MBIC Assuming 2 mL lock volume” value (C. albicans) was 1.18 mg. For the same compound, the “eradication of established biofilm” value (Candida albicans biofilm) was “completely eradicated”, the “Log reduction of established biofilm” value ([3]; 38 mg/mL) was about 0.5 Log and the “Equivalence to Heparin” value (sheep plasma; calculated from volumes giving 50% clotting versus heparin standard, per replicate) was 6.23 U/mL. It also gave a 50% clotting range (sheep plasma; final concentration in tube, 1 hour at room temperature, per replicate) of 5.1 to 5.4 mg/mL.

With `Cc1cccc(C)c1NC(=O)C1CCCCN1C.Cl` (stereo not drawn) [Mepivacaine, Mepivacaine HCl] the MBIC (S. epidermidis) was 28.2 mg/mL, the “MBIC Assuming 2 mL lock volume” value (S. epidermidis) was 56.4 mg and the MBIC (P. aeruginosa) was 28.2 mg/mL. The “MBIC Assuming 2 mL lock volume” value (P. aeruginosa) was 56.4 mg, the MBIC (C. albicans) was “No inhibition” and the “MBIC Assuming 2 mL lock volume” value (C. albicans) was “No inhibition”. For the same compound, the “Log reduction of established biofilm” value ([3]; 28 mg/mL) was 1.6 Log.
